Reference: patent US4742049A, “Semisynthetic erythromycin antibiotics” (Abbott Laboratories, priority 1986, dated 1988)
Where two headings read alike, the source gives them in different places.

Key:
[1] = tested on: Haemophilus influenzae; experiment: MIC against strains of Haemophilus influenzae; type: cell-based
Experimental: (§1) Erythromycin A was used for this purpose.
(§2) After incubation, each disk is read.
In the manner of Example 23, the efficacy of compounds of this invention were tested against numerous strains of Haemophilus influenzae.

[2] = tested on: E. coli; experiment: antimicrobial spectrum, agar dilution MIC; type: cell-based; conditions: Escherichia coli, BHI agar, 20-24 hours
[3] = tested on: Strep. pyogenes; experiment: antimicrobial spectrum, agar dilution MIC; type: cell-based; conditions: Streptococcus pyogenes, BHI agar, 20-24 hours
Experimental: (§3) Twelve petri dishes containing successive aqueous dilutions of the test compound mixed with 10 ml of sterilized Brain Heart Infusion agar (Difco 0418-01-5) are prepared. Each plate is inoculated with 1:100 (or 1:10 for slow-growing strains, primarily Micrococcus and Streptococcus) dilutions of up to 32 different microorganisms, using a Steers replicator block. The inoculated plates are incubated at 35°-37° C. for 20-24 hours. In addition, a control plate, using BHI agar containing no test compound, is prepared and incubated at the beginning and end of each test.
(§4) An additional plate containing a compound having known susceptibility patterns for the organisms being tested and belonging to the same antibiotic class as the test compound is also prepared and incubated as a further control, as well as to provide test-to-test comparability.
(§5) After incubation, each disk is read. The MIC is defined as the lowest concentration of drug yielding no growth, a slight haze, or sparsely isolated colonies on the inoculum spot as compared to the growth control.

[4] = tested on: Staph. epidermidis; experiment: antimicrobial spectrum, agar dilution MIC; type: cell-based; conditions: Staphylococcus epidermidis
Experimental: as §3, §4, §5

[5] = tested on: Staph. aureus; experiment: antimicrobial spectrum, agar dilution MIC; type: cell-based; conditions: Staphylococcus aureus, BHI agar, 20-24 hours
Experimental: as §3, §4, §5

[6] = tested on: Strep. faecium; experiment: antimicrobial spectrum, agar dilution MIC; type: cell-based; conditions: Enterococcus faecium, ATCC8043
Experimental: as §3, §4, §5

[7] = tested on: Klebsiella pneumoniae; experiment: antimicrobial spectrum, agar dilution MIC; type: cell-based; conditions: strain 8045, BHI agar, 20-24 hours
[8] = tested on: Ent. aerogenes; experiment: antimicrobial spectrum, agar dilution MIC; type: cell-based; conditions: Klebsiella aerogenes, ATCC13048, strain ATCC 13048; BHI agar, 20-24 hours; read-out: MIC
[9] = tested on: Acinetobacter SP; experiment: antimicrobial spectrum, agar dilution MIC; type: cell-based; conditions: strain CMX 669, BHI agar, 20-24 hours
[10] = tested on: Lactobacillus Casei; experiment: antimicrobial spectrum, agar dilution MIC; type: cell-based; conditions: Lacticaseibacillus casei, ATCC7469, strain ATCC 7469; BHI agar, 20-24 hours
[11] = tested on: Pseudomonas cepacia; experiment: antimicrobial spectrum, agar dilution MIC; type: cell-based; conditions: Burkholderia cepacia, strain 2961; BHI agar, 20-24 hours; read-out: MIC
Experimental: as §1, §2

[12] = tested on: Strep. agalactiae; experiment: antimicrobial spectrum, agar dilution MIC; type: cell-based; conditions: Streptococcus agalactiae, strain CMX 508; BHI agar, 20-24 hours
Experimental: as §3, §4, §5

[13] = tested on: Strep. bovis; experiment: antimicrobial spectrum, agar dilution MIC; type: cell-based; conditions: Streptococcus equinus, strain A5169; BHI agar, 20-24 hours
Experimental: as §3, §4, §5

[14] = tested on: Providencia stuartii; experiment: antimicrobial spectrum, agar dilution MIC; type: cell-based; conditions: strain CMX 640, BHI agar, 20-24 hours
Experimental: as §3, §4, §5

[15] = tested on: Pseudomonas aeruginosa; experiment: antimicrobial spectrum, agar dilution MIC; type: cell-based; conditions: Pseudomonas aeruginosa, BHI agar, 20-24 hours
Experimental: as §3, §4, §5

[16] = tested on: Micrococcus luteus; experiment: antimicrobial spectrum, agar dilution MIC; type: cell-based; conditions: strain 9341, BHI agar, 20-24 hours
[17] = tested on: gut contractions (stomach, duodenum, jejunum); conditions: dog, in vivo, iv, 4 mg/kg
Experimental: Compounds of this invention have been tested for gastrointestinal stimulating activity in a dog model at 4 mg/kg intravenously. Contractions in the gut were recorded with surgically implanted strain gauges. […] Ratios were calculated for the stomach, duodenum and jejunum, and a final arithmetic mean index was calculated and reported in Table 1.

[18] = Haemophilus influenzae, ATCC9006, strain ATCC 9006, read-out: MIC
[19] = Haemophilus influenzae, ATCC9795, strain ATCC 9795, read-out: MIC
[20] = Haemophilus influenzae, ATCC10211, strain ATCC 10211, read-out: MIC
[21] = Haemophilus influenzae, ATCC19418, strain ATCC 19418, read-out: MIC
[22] = Haemophilus influenzae, strain 504, read-out: MIC
[23] = Haemophilus influenzae, strain 519A, read-out: MIC
[24] = Haemophilus influenzae, strain 566A, read-out: MIC
[25] = Haemophilus influenzae, strain 588A, read-out: MIC
[26] = Haemophilus influenzae, strain 632A, read-out: MIC
[27] = Haemophilus influenzae, strain 667A, read-out: MIC
[28] = Haemophilus influenzae, strain 747C, read-out: MIC
[29] = Haemophilus influenzae, strain 751, read-out: MIC
[30] = Haemophilus influenzae, strain 1177, read-out: MIC
[31] = Haemophilus influenzae, strain 1435, read-out: MIC
[32] = Haemophilus influenzae, strain 5036B, read-out: MIC
[33] = Haemophilus influenzae, strain DILL AMP R, read-out: MIC
[34] = Haemophilus influenzae, strain SOL AMP R, read-out: MIC
[35] = Haemophilus influenzae, strain SPK AMP R, read-out: MIC

11-deoxy-6-O-methyl erythromycin A 11,12-(N-3-hydroxyethyl)cyclic carbamate [Example 16]
1 µg/mL: MIC ([1]; strain 504) | MIC ([1]; strain 566A) | MIC ([1]; strain 632A) | MIC ([1]; strain 667A) | MIC ([1]; strain 751) | MIC ([1]; strain 1177) | MIC ([1]; strain 5036B) | MIC ([1]; strain ATCC 10211) | MIC ([1]; strain SPK AMP R)
.25 µg/mL: MIC ([1]; strain 1435)
.5 µg/mL: MIC ([1]; strain 519A) | MIC ([1]; strain 588A) | MIC ([1]; strain 747C) | MIC ([1]; strain ATCC 9006) | MIC ([1]; strain ATCC 9795) | MIC ([1]; strain ATCC 19418) | MIC ([1]; strain DILL AMP R) | MIC ([1]; strain SOL AMP R)

CC[C@H]1OC(=O)[C@H](C)[C@@H](O[C@H]2C[C@@](C)(OC)[C@@H](O)[C@H](C)O2)[C@H](C)[C@@H](O[C@@H]2O[C@H](C)C[C@H](N(C)C)[C@H]2O)[C@](C)(OC)C[C@@H](C)C(=O)[C@H](C)[C@H]2N(CCCOCCOC)C(=O)O[C@]12C [Example 1, 11-deoxy-6-O-methylerythromycin A-11,12-(N-methoxyethoxypropyl)cyclic carbamate]
0.12 µg/mL: MIC ([5]; strain CMX 686B, read-out: MIC)
0.06 µg/mL: MIC ([3]; strain EES61, read-out: MIC) | MIC ([4]; strain 3519, BHI agar, 20-24 hours, read-out: MIC) | MIC ([5]; ATCC6538P, strain ATCC 6538P, read-out: MIC) | MIC ([6]; strain ATCC 8043, BHI agar, 20-24 hours, read-out: MIC)
16 µg/mL: MIC ([2]; strain JUHL)
64 µg/mL: MIC ([3]; strain 930, read-out: MIC)

CC[C@H]1OC(=O)[C@H](C)[C@@H](O[C@H]2C[C@@](C)(OC)[C@@H](O)[C@H](C)O2)[C@H](C)[C@@H](O[C@@H]2O[C@H](C)C[C@H](N(C)C)[C@H]2O)[C@](C)(OC)C[C@@H](C)C(=O)[C@H](C)[C@H]2N(Cc3ccccc3)C(=O)O[C@]12C [Example 3, 11-deoxy-6-O-methyl erythromycin A 11,12-(N-benzyl)cyclic carbamate]
0.05 µg/mL: MIC [10] | MIC [16]
25 µg/mL: MIC ([2]; strain DC-2) | MIC ([2]; strain JUHL) | MIC ([2]; strain KNK 437) | MIC [7] | MIC ([15]; strain BMH10)
0.2 µg/mL: MIC [4] | MIC ([4]; strain 3519 RARI, BHI agar, 20-24 hours)
3.1 µg/mL: MIC ([15]; strain K799/61)
6.2 µg/mL: MIC ([2]; strain H560)
100 µg/mL: MIC ([3]; strain 930)
0.39 µg/mL: MIC ([2]; strain SS) | MIC ([5]; ATCC6538P, strain ATCC 6538P) | MIC ([5]; strain 45 RAR 2) | MIC ([5]; strain CMX 686B)
50 µg/mL: MIC [8] | MIC [9] | MIC [11]
0.78 µg/mL: MIC ([5]; strain A5177)
> 100 µg/mL: MIC [14] | MIC ([15]; strain 5007) | MIC ([15]; strain K799/WT)
0.02 µg/mL: MIC [12] | MIC [13] | MIC ([3]; strain EES61)
0.1 µg/mL: MIC ([5]; strain 45) | MIC [6]

CC[C@H]1OC(=O)[C@H](C)[C@@H](O[C@H]2C[C@@](C)(OC)[C@@H](O)[C@H](C)O2)[C@H](C)[C@@H](O[C@@H]2O[C@H](C)C[C@H](N(C)C)[C@H]2O)[C@](C)(OC)C[C@@H](C)C(=O)[C@H](C)[C@H]2N(CCCN(C)C)C(=O)O[C@]12C [Example 12, 11-deoxy-6-O-methyl erythromycin A 11,12-[N-(3-dimethylamino)propyl]cyclic carbamate]
0.5 µg/mL: MIC [1, 18] | MIC [1, 19] | MIC [1, 23] | MIC [1, 25] | MIC [1, 26] | MIC [1, 27] | MIC [1, 28] | MIC [1, 29] | MIC [1, 30] | MIC [1, 33] | MIC [1, 34] | MIC [1, 35]
1 µg/mL: MIC [1, 20] | MIC [1, 21] | MIC [1, 22] | MIC [1, 24] | MIC [1, 32]
0.25 µg/mL: MIC [1, 31]

CC[C@H]1OC(=O)[C@H](C)[C@@H](O[C@H]2C[C@@](C)(OC)[C@@H](O)[C@H](C)O2)[C@H](C)[C@@H](O[C@@H]2O[C@H](C)C[C@H](N(C)C)[C@H]2O)[C@](C)(OC)C[C@@H](C)C(=O)[C@H](C)[C@H]2N(CCCO)C(=O)O[C@]12C [Example 15, 11-deoxy-6-O-methyl erythromycin A 11,12-(N-3-hydroxypropyl)cyclic carbamate]
1 µg/mL: MIC [1, 20] | MIC [1, 21] | MIC [1, 22] | MIC [1, 24] | MIC [1, 25] | MIC [1, 26] | MIC [1, 27] | MIC [1, 29] | MIC [1, 30] | MIC [1, 32] | MIC [1, 35]
0.5 µg/mL: MIC [1, 18] | MIC [1, 19] | MIC [1, 23] | MIC [1, 28] | MIC [1, 31] | MIC [1, 33] | MIC [1, 34]

CC[C@H]1OC(=O)[C@H](C)[C@@H](O[C@H]2C[C@@](C)(OC)[C@@H](O)[C@H](C)O2)[C@H](C)[C@@H](O[C@@H]2O[C@H](C)C[C@H](N(C)C)[C@H]2O)[C@](C)(O)C[C@@H](C)C(=O)[C@H](C)[C@H]2NC(=O)O[C@@]21C [Example 18, 11-deoxyerythromycin A 11,12-cyclic carbamate]
3.60: Gastrointestinal Motility Index [17]

CC[C@H]1OC(=O)[C@H](C)[C@@H](O[C@H]2C[C@@](C)(OC)[C@@H](O)[C@H](C)O2)[C@H](C)[C@@H](O[C@@H]2O[C@H](C)C[C@H](N(C)C)[C@H]2O)[C@](C)(O)C[C@@H](C)C(=O)[C@H](C)[C@H]2N(C)C(=O)O[C@]12C [Example 19, 11-deoxyerythromycin A 11,12-(N-methyl)cyclic carbamate]
5.83: Gastrointestinal Motility Index [17]
